Literature values as cited in PMC6311893, “Computational prediction of plasma protein binding of cyclic peptides from small molecule experimental data using sparse modeling techniques” (BMC Bioinformatics, 2018).

Tested on: plasma protein
Details: cited from earlier work

Structure (SMILES)	PPB (fb)
C=C1/C(=C\C=C2/CCC[C@]3(C)[C@@H]([C@H](C)CCCC(C)(C)O)CC[C@@H]23)C[C@@H](O)C[C@@H]1O [calcitriol]	0.95

Same assay, conditions: fraction bound to plasma protein; small molecule dataset, sheet 1-SM (Set Dte = test, Dtr = training); ref Ingle et al.; cited from earlier work

Structure (SMILES)	PPB (fb)
CCc1oc2ccccc2c1C(=O)c1cc(Br)c(O)c(Br)c1 [benzbromarone]	0.99
CN(C)CCCOc1nn(Cc2ccccc2)c2ccccc12 [benzydamine]	0.1
CNCCc1ccccn1 [betahistine]	0.03
C/N=C(\NC)NCc1ccccc1 [bethanidine]	0.1
CC(C)(Oc1ccc(CCNC(=O)c2ccc(Cl)cc2)cc1)C(=O)O [bezafibrate]	0.95
O=C(O)CCCC[C@@H]1SC[C@@H]2NC(=O)N[C@@H]21 [biotin]	0.2
Cc1cc2c(OCC(CNC(C)(C)C)OC(=O)c3ccccc3)cccc2[nH]1 (stereo not shown) [bopindolol]	0.65
CC(C)C[C@H]1C(=O)N2CCC[C@H]2[C@]2(O)O[C@](NC(=O)[C@@H]3C=C4c5cccc6[nH]c(Br)c(c56)C[C@H]4N(C)C3)(C(C)C)C(=O)N12 [bromocriptine]	0.95
CN(C)CCC(c1ccc(Br)cc1)c1ccccn1 (stereo not shown) [brompheniramine]	0.72
CC(C)(C)N1CCC(c2ccccc2)(c2ccccc2)CC1 [budipine]	0.96
CC(NC(C)(C)C)C(=O)c1cccc(Cl)c1 (stereo not shown) [bupropion]	0.75
CC(CC1c2ccccc2CCc2ccccc21)CN(C)C (stereo not shown) [butriptyline]	0.95
C=CCN1C[C@H](C(=O)N(CCCN(C)C)C(=O)NCC)C[C@@H]2c3cccc4[nH]cc(c34)C[C@H]21 [cabergoline]	0.41
C=C1CC[C@H](O)C/C1=C/C=C1\CCC[C@]2(C)[C@@H]([C@H](C)CCCC(C)(C)O)CC[C@@H]12 [calcifediol]	0.8
CCOc1nc2cccc(C(=O)O)c2n1Cc1ccc(-c2ccccc2-c2nnn[nH]2)cc1 [candesartan]	0.99
C[C@]12CCC(=O)C=C1C=C[C@@H]1[C@@H]2CC[C@@]2(C)[C@H]1CC[C@@]2(O)CCC(=O)O [canrenoate]	0.94
CCCCCOC(=O)Nc1nc(=O)n([C@@H]2O[C@H](C)[C@@H](O)[C@H]2O)cc1F [capecitabine]	0.3
NC(=O)N1c2ccccc2C=Cc2ccccc21 [carbamazepine]	0.75
CC1(C)[C@@H](OC(=O)CCC(=O)O)CC[C@]2(C)[C@H]3C(=O)C=C4[C@@H]5C[C@@](C)(C(=O)O)CC[C@]5(C)CC[C@@]4(C)[C@]3(C)CC[C@@H]12 [carbenoxolone]	0.99
C[C@@](Cc1ccc(O)c(O)c1)(NN)C(=O)O [carbidopa]	0.36
CCOC(=O)n1ccn(C)c1=S [carbimazole]	0.07
CC(C)(C)NCC(O)COc1cccc2c1CCC(=O)N2 (stereo not shown) [carteolol]	0.15

Same assay, conditions: human, plasma; cited from earlier work

Structure (SMILES)	PPB (fb)
CCNC(=O)[C@@H]1CCCN1C(=O)[C@H](CCCNC(=N)N)NC(=O)[C@H](CC(C)C)NC(=O)[C@@H](COC(C)(C)C)NC(=O)[C@H](Cc1ccc(O)cc1)NC(=O)[C@H](CO)NC(=O)[C@H](Cc1c[nH]c2ccccc12)NC(=O)[C@H](Cc1cnc[nH]1)NC(=O)[C@@H]1CCC(=O)N1 [buserelin]	0.15

Same assay, conditions: plasma; cited from earlier work

Structure (SMILES)	PPB (fb)
CC(=O)OC1C(O)CC(OC2C(O)CC(OC3C(O)CC(OC4CCC5(C)C(CCC6C5CC(O)C5(C)C(C7=CC(=O)OC7)CCC65O)C4)OC3C)OC2C)OC1C (stereo not drawn) [beta-acetyldigoxin]	0.15
CCCCC1(CC)C(=O)NC(=O)NC1=O [butobarbital]	0.26
COC(=O)Nc1nc2ccccc2[nH]1 [carbendazim]	0.67
CCCC(C)(COC(N)=O)COC(=O)NC(C)C (stereo not shown) [carisoprodol]	0.58
